# According to publication PMC4512978, “Synthesis and evaluation in rats of homologous series of [^18F]-labeled dopamine D2/3 receptor agonists based on the 2-aminomethylchroman scaffold as potential PET tracers” (EJNMMI Research, 2015):
# Tests used:
# [1] = LogD measurement (n-octanol/phosphate buffer); format: physicochemical; conditions: n-octanol / 1 M phosphate buffer pH 7.4
# Description: LogD of the tracers was measured using the radioactivity remaining on the HLB SPE cartridges after their elution with ethanol during the tracer formulation procedure (see above). The cartridge was dried with nitrogen for 5 min and eluted with at least 1.5 mL n-octanol. A 500 μL portion of octanol eluate was mixed with 500 μL of 1 M phosphate buffer (pH 7.4) and vigorously vortexed for 5 min. The mixture was then centrifuged at 17,000g for 10 min and 3 × 100 μL aliquots of organic and aqueous phase were loaded into a gamma-counter for radioactivity measurement. To correct for possible presence of radioactive impurities in the tracer, aliquots of organic and aqueous phases were later analyzed by radio-TLC, and the counts obtained from the gamma-counter were corrected according to the percentage of impurities found in aqueous and organic phases. LogD was calculated with the following formula: LogD=lgCPMorg×Xorgtracer/CPMaq×Xaqtracer,
# where CPMorg is the mean radioactivity of the organic aliquots, Xorgtracer is the mean percentage of radioactivity accounting for intact tracer in organic aliquots (as determined from radio-TLC), and CPMaq and Xaqtracer are the corresponding values for the aqueous phase.
# For each tracer batch used for logD determination, the experiment was performed in duplicate. LogD values are means calculated from at least two independent experiments.
# [2] = tested on: D2/3R; experiment: In vitro autoradiography of rat brain slices; format: binding, Sprague-Dawley rats; conditions: for Striatal SBR % change relative to control condition, Raclopride / Striatal SBR, Raclopride: with 10 μM raclopride; for Striatal SBR % change relative to control condition, GTP / Striatal SBR, GTP: with 100 μM GTP
# Description: In vitro autoradiography assay was performed as previously described. Frozen brains of young (10–12 weeks of age; 300–350 g body weight) male Sprague-Dawley rats (Harlan, Netherlands) were cut at −12 °C into sagittal slices 20 μm thick using a Leica microtome, and the slices were thaw-mounted on Superfrost (70 × 22 mm, Fischer) adhesive slides. Only slices containing both striatal and cerebellar regions were used. The slides with slices mounted them were allowed to dry, then put into storage boxes with silica gel bags and stored at −80 °C.
# On the day of the experiment (within 1 week from the preparation of the slices), the slides were taken out of storage and allowed to come to room temperature for 5–10 min. Then, 1–1.2 mL of incubation buffer (50 mM Tris-HCl, 5 mM KCl, 2 mM CaCl2, 2 mM MgCl2, 120 mM NaCl, pH 7.4 25 °C) was applied per slide, and the slides were pre-incubated for 15 min at room temperature. The buffer was then removed, and the slides were placed into staining jars containing radioligand solution (concentration range of 0.1–10 nM) in the incubation buffer with or without 10 μM raclopride (D2/3 antagonist) or 100 μM guanosine-5'-triphosphate sodium salt (GTP, stimulator of G-protein uncoupling from the receptors). After 35 min of incubation at 37 °C, slides were washed once with ice-cold incubation buffer (3.5 min) and dipped for 30 s into ice-cold distilled water to remove buffer salts.
# After drying the slides in a stream of room-temperature air, they were exposed on phosphor storage screens for 6–10 h. The storage screens were read by Cyclone Storage Phosphor System (Packard Instruments Co.). Quantification of plate readings was done with OptiQuant software (version 3.00, Packard Instruments Co.).
# (§1) Degree of D2/3R-specific binding of the tracers was characterized by BPND (as given above) or the specific binding ratio (SBR) given as target region activity/cerebellar activity - 1. Both were calculated under control conditions and in response to the raclopride challenge.
# [3] = tested on: D2/3R against serotonin-1A and adrenergic α1 receptors; design: method as in PMID 9435894; conditions: cited from earlier work
# [4] = tested on: D2/3R; conditions: cited from earlier work; for displacement of apparent D2/3R-specific striatal uptake: Sprague-Dawley rats, 1–2 mg/kg (2.9–5.8 μmol/kg) raclopride
# [5] = tested on: D2/3R; experiment: Kinetic analysis of PET data (1TCM, 2TCM, Logan, SRTM); format: in vivo, Sprague-Dawley rats; conditions: 1 mg/kg raclopride, measured with [^18F]FEt-AMC13
# Description: Kinetic analysis is described using the nomenclature proposed by Innis et al.. ROI TACs of [^18F]FEt-AMC13 were analyzed with one-tissue and two-tissue compartmental models of reversible binding (1TCM and 2TCM, respectively) to obtain individual rate constants. From these, the regional distribution volumes (VT) were calculated and compared to those obtained with Logan graphical analysis. Binding potentials (BPND) were calculated from the distribution ratios as VT (target) / VT (cerebellum) – 1, or estimated with the simplified reference tissue model (SRTM) using the cerebellum as reference region.
# Metabolite-corrected plasma-derived arterial input function and whole blood time-activity curve were used for Logan, 1TCM, and 2TCM analyses. Fractional cerebral blood volume was set to 3.6 % [27]. For one rat in the raclopride-treated group, no input curves could be obtained; therefore, its PET data were only analyzed with SRTM.
# as §1
# [6] = tested on: D2/3R; experiment: MicroPET study in rats; format: in vivo, Sprague-Dawley rats; conditions: saline pre-treated rats; peak (45 min post-injection for [^18F]FEt-AMC13 and [^11C]raclopride)
# Description: Animal experiments were performed by licensed investigators in compliance with the Law on Animal Experiments of The Netherlands. The protocol was approved by the Committee on Animal Ethics of the University of Groningen. Young male (10–12 weeks of age, 300–350 g body weight) Sprague-Dawley rats (Harlan, the Netherlands) were used for all experiments. The rats were maintained at a 12-h light/12-h dark regime and were fed standard laboratory chow ad libitum.
# Distribution of the radiotracers was studied in rats pre-treated, at random, with physiological saline (controls) or raclopride tartrate (1 mg/kg calculated per raclopride base, equivalent to 2.9 μmol/kg). Saline and raclopride were administered intravenously (1 mL/kg injected volume).
# An additional group of saline pre-treated rats, injected with [^11C]raclopride, served as positive controls for D2/3R-specific brain uptake.
# Two rats were scanned simultaneously. Before all manipulations, animals were anesthetized with a mixture of isoflurane/air (inhalation anesthesia, 5 % ratio during induction, 2 % at maintenance). Cannulae were placed into the rats’ left femoral arteries and veins; the operation took 45–50 min. The rats were positioned supine inside the camera (Focus 220 microPET, Siemens-Concorde), one above the other with their heads in the camera’s field of view. A 515-s transmission scan with a Co-57 point source was performed. Tracer was injected through the venous cannula as a slow bolus (1 mL volume, 60 s long) using an infusion pump. The second (upper) animal was injected 16 min after the first (lower).
# PET acquisition was started during the injection of radioactivity in the first rat. A 106-min long (76 min long in the case of [^11C]raclopride) list-mode acquisition protocol was used for the scan.
# List-mode data from the 106-min-long and 76-min-long scans were reframed into, respectively, 90-min-long and 60-min-long dynamic sequences of 6 × 10, 4 × 30, 2 × 60, 1 × 120, 1 × 180, 4 × 300, 3 × 600, and (for 90-min-long scans) 2 × 900 s frames. The data were reconstructed per time frame using an iterative reconstruction algorithm (attenuation-weighted 2-dimensional ordered-subset expectation maximization, provided by Siemens; 4 iterations, 16 subsets; zoom factor 2). Datasets were fully corrected for random coincidences, scatter, and attenuation. Data from the transmission scan were used for attenuation correction. The final datasets consisted of 95 slices, with a slice thickness of 0.8 mm and an in-plane image matrix size of 128 × 128 and pixel size of 0.47 × 0.47 mm.
# Reconstructed images were analyzed with Inveon 2.0 software (Siemens Medical Solutions, USA, Inc). Regions of interest (ROIs) were drawn manually on a T2-weighted MRI template of rat brain around the striatum, brainstem, cortex, hippocampus, hypothalamus, thalamus, olfactory bulbs, and cerebellum around the whole brain and around the pituitary gland. The MRI template was co-registered with the PET scan by image fusion. The time-activity curves (TAC) per ROI were determined in Bq/cm^3 units and converted into standardized uptake values (SUVs).
# as §1
SMILES,logD [1],"Striatal SBR % change relative to control condition, Raclopride [2] [%]","Striatal SBR, Raclopride [2]","Striatal SBR % change relative to control condition, GTP [2] [%]","Striatal SBR, GTP [2]",other results
Oc1ccc2c(c1)O[C@@H](CNCc1ccc(OCCC[18F])cc1)CC2 [[^18F]FPr-AMC13],1.98 ± 0.08,−80,0.41 ± 0.23,−80,0.42 ± 0.23,–
Oc1ccc2c(c1)O[C@@H](CNCCN1CCN(c3ccc(OCCC[18F])cc3)CC1)CC2 [[^18F]FPr-AMC15],2.39 ± 0.001,−61,0.39 ± 0.22,−63,0.37 ± 0.24,–
Oc1ccc2c(c1)O[C@@H](CNCCN1CCN(c3ccc(OCCCC[18F])cc3)CC1)CC2 [[^18F]FBu-AMC15],2.71 ± 0.07,−64,0.25 ± 0.23,−67,0.23 ± 0.23,–
Oc1ccc2c(c1)O[C@@H](CNCc1ccccc1)CC2 [(R)-2-[(benzylamino)methyl]chroman-7-ol],–,–,–,–,–,selectivity [3]: selective for D2/3R against serotonin-1A and adrenergic α1 receptors
CC[11CH2]N1CCO[C@@H]2c3cc(O)ccc3CCC21 (stereo partly shown) [[^11C]PHNO],–,–,–,–,–,displacement of apparent D2/3R-specific uptake ([4]; 0.2 mg/kg (0.58 μmol/kg) raclopride): over 80%; displacement of apparent D2/3R-specific striatal uptake [4]: > 90%
"CCN1CCC[C@H]1CNC(=O)c1c(O)c(Cl)cc(Cl)c1OC [raclopride, reference compound]",–,–,–,–,–,raclopride-induced D2/3R occupancy (modified Lassen plot) [5]: 20–25%
CCCN1CCc2cc(O[11CH3])cc3c2C1Cc1ccc(O)c(O)c1-3 (stereo not shown) [[^11C]MNPA],–,–,–,–,–,displacement of apparent D2/3R-specific striatal uptake [4]: > 90%
"CCN1CCC[C@H]1CNC(=O)c1c(O)c(Cl)cc(Cl)c1O[11CH3] (racemic) [[^11C]raclopride, reference compound]",–,–,–,–,–,Striatum-to-cerebellum uptake ratio (PET) [6]: 7.45 ± 1.60
CCCN(CCC[18F])C1CCc2c(O)cccc2C1 (stereo not shown) [[^18F]5-OH-FPPAT],–,–,–,–,–,striatum-to-cerebellum ratio ([4]; rats): 2
